Target: T1, Nav1.7 (or SCN9A) channel (Homo sapiens, UniProt Q15858)
T1 construct: expressed in transfected cells
Assay: Nav1.7 (hSCN9A) electrophysiology assay, PatchXpress platform
Type: cell-based
Conditions: estimated IC50 from single point electrophysiology data, HEK cells stably expressing hSCN9A, held at V1/2 of inactivation, read-out: Nav1.7 EIC50
In short: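 HEK cells stably expressing hSCN9A were recorded by whole-cell voltage clamp, including on PatchXpress, at 22–24°C with extracellular solution at pH 7.4. A 20 msec step to 0 mV followed an 8 s conditioning prepulse to the empirically determined inactivation V1/2. Inhibition was taken from current amplitude before vs after compound.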

T1 sequence (Q15858 whole entry): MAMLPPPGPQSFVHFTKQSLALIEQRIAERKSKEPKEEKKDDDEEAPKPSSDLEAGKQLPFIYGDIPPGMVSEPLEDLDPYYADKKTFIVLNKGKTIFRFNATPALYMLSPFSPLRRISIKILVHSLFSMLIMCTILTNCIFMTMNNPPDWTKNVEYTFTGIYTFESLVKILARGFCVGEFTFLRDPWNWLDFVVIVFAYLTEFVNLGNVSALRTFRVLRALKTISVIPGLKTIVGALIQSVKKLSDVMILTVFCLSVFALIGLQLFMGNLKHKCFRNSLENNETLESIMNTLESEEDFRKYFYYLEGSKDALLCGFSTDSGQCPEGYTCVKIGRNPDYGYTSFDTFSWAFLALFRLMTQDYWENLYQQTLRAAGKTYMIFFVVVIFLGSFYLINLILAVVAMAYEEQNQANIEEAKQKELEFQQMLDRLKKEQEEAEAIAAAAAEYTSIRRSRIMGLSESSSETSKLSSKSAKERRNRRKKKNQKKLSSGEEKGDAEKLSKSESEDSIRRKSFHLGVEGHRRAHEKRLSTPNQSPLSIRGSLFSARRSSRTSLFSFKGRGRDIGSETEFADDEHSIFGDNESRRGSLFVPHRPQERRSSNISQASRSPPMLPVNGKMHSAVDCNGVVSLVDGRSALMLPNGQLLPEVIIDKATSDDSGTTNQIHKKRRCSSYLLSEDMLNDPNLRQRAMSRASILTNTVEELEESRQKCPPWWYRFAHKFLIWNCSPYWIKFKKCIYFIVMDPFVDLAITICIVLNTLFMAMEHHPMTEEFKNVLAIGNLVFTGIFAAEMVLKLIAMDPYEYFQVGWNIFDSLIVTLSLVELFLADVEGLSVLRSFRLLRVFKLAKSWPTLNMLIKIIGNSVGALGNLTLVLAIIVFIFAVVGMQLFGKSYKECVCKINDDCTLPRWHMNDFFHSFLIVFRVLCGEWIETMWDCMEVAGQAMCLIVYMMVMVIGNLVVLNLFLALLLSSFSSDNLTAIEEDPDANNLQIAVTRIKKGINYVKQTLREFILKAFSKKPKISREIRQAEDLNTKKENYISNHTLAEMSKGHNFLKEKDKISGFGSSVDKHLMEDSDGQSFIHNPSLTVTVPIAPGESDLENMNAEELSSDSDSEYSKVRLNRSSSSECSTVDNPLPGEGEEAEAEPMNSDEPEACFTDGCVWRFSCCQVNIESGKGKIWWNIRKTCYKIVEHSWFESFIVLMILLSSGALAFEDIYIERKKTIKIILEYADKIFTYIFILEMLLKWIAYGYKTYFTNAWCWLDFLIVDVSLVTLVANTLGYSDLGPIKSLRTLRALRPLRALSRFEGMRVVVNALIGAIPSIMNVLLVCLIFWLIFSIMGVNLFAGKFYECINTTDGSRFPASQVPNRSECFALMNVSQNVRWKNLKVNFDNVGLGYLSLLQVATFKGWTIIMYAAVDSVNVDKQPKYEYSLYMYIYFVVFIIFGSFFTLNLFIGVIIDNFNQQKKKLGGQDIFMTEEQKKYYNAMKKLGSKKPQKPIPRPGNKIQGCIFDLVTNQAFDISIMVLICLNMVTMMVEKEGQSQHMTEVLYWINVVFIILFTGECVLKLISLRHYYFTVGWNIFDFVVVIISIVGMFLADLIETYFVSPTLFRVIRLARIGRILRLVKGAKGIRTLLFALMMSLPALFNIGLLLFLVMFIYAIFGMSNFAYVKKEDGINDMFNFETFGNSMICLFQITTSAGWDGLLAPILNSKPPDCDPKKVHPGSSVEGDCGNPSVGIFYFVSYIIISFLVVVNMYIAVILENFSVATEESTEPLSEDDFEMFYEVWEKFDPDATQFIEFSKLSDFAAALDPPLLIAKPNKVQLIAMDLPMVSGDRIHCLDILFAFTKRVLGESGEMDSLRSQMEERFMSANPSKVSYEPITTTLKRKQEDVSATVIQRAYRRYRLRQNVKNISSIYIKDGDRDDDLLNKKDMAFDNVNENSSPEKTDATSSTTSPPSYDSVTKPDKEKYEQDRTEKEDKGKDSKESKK

SMILES | IC50 [nM]
CS(=O)(=O)NC(=O)c1cc(F)c(COc2ccc(Cl)cc2-c2ccno2)cc1F [Example 148, 4-[(4-chloro-2-isoxazol-5-ylphenoxy)methyl]-2,5-difluoro-N-(methylsulfonyl)benzamide] | > 1000
CS(=O)(=O)NC(=O)c1cc(F)c(COc2c(F)cccc2Cl)cc1F [Example 149, 4-[(2-chloro-6-fluorophenoxy)methyl]-2,5-difluoro-N-(methylsulfonyl)benzamide] | 4000
COc1cc(C)cc(OCc2cc(F)c(C(=O)NS(C)(=O)=O)cc2F)c1 [Example 150, 2,5-difluoro-4-[(3-methoxy-5-methylphenoxy)methyl]-N-(methylsulfonyl)benzamide] | 500
Cc1ccc(OCc2cc(F)c(C(=O)NS(C)(=O)=O)cc2F)cc1Cl [Example 151, 4-[(3-chloro-4-methylphenoxy)methyl]-2,5-difluoro-N-(methylsulfonyl)benzamide] | 65
CS(=O)(=O)NC(=O)c1cc(F)c(COc2ccc(F)cc2C#N)cc1F [Example 153, 4-[(2-cyano-4-fluorophenoxy)methyl]-2,5-difluoro-N-(methylsulfonyl)benzamide] | 12000
CS(=O)(=O)NC(=O)c1cc(F)c(COc2cccc(C#N)c2)cc1F [Example 154, 4-[(3-cyanophenoxy)methyl]-2,5-difluoro-N-(methylsulfonyl)benzamide] | 11000
COc1ccc(OCc2cc(F)c(C(=O)NS(C)(=O)=O)cc2F)c(F)c1F [Example 155, 4-[(2,3-difluoro-4-methoxyphenoxy)methyl]-2,5-difluoro-N-(methylsulfonyl)benzamide] | 3200
COc1ccc2cccc(OCc3cc(F)c(C(=O)NS(C)(=O)=O)cc3F)c2c1 [Example 156, 2,5-difluoro-4-{[(7-methoxy-1-naphthyl)oxy]methyl}-N-(methylsulfonyl)benzamide] | 2300
COc1ccc(OCc2cc(F)c(C(=O)NS(C)(=O)=O)cc2F)c(Cl)c1 [Example 157, 4-[(2-chloro-4-methoxyphenoxy)methyl]-2,5-difluoro-N-(methylsulfonyl)benzamide] | 2100
CS(=O)(=O)NC(=O)c1cc(F)c(COc2ccc(F)cc2)cc1F [Example 158, 2,5-difluoro-4-[(4-fluorophenoxy)methyl]-N-(methylsulfonyl)benzamide] | 1500
Cc1cc(OCc2cc(F)c(C(=O)NS(C)(=O)=O)cc2F)ccc1Cl [Example 159, 4-[(4-chloro-3-methylphenoxy)methyl]-2,5-difluoro-N-(methylsulfonyl)benzamide] | 130
COc1ccc(OCc2cc(F)c(C(=O)NS(C)(=O)=O)cc2F)c2ccccc12 [Example 160, 2,5-difluoro-4-{[(4-methoxy-1-naphthyl)oxy]methyl}-N-(methylsulfonyl)benzamide] | 760
Cc1cc(OCc2cc(F)c(C(=O)NS(C)(=O)=O)cc2F)cc(C)c1C#N [Example 162, 4-[(4-cyano-3,5-dimethylphenoxy)methyl]-2,5-difluoro-N-(methylsulfonyl)benzamide] | 730
CS(=O)(=O)NC(=O)c1cc(F)c(COc2ccc(F)c(Cl)c2C#N)cc1F [Example 163, 4-[(3-chloro-2-cyano-4-fluorophenoxy)methyl]-2,5-difluoro-N-(methylsulfonyl)benzamide] | > 1000
COc1ccc(OCc2cc(F)c(C(=O)NS(C)(=O)=O)cc2F)cc1 [Example 164, 2,5-difluoro-4-[(4-methoxyphenoxy)methyl]-N-(methylsulfonyl)benzamide] | > 3000
CS(=O)(=O)NC(=O)c1cc(F)c(COc2cccc3ccccc23)cc1F [Example 165, 2,5-difluoro-N-(methylsulfonyl)-4-[(1-naphthyloxy)methyl]benzamide] | 740
Cc1nc(-c2cccc(OCc3cc(F)c(C(=O)NS(C)(=O)=O)cc3F)c2)no1 [Example 166, 2,5-difluoro-4-{[3-(5-methyl-1,2,4-oxadiazol-3-yl)phenoxy]methyl}-N-(methylsulfonyl)benzamide] | 1300
Cc1c(OCc2cc(F)c(C(=O)NS(C)(=O)=O)cc2F)ccc(F)c1F [Example 167, 4-[(3,4-difluoro-2-methylphenoxy)methyl]-2,5-difluoro-N-(methylsulfonyl)benzamide] | 2600
CS(=O)(=O)NC(=O)c1cc(F)c(COc2cccc(N3CCCCC3)c2)cc1F [Example 168, 2,5-difluoro-N-(methylsulfonyl)-4-[(3-piperidin-1-ylphenoxy)methyl]benzamide] | 3100
COc1ccccc1COc1ccc(C(=O)NS(C)(=O)=O)cc1 [Example 169, 4-[(2-methoxybenzyl)oxy]-N-(methylsulfonyl)benzamide] | > 3000
CS(=O)(=O)NC(=O)c1ccc(OCc2cccc(F)c2F)cc1 [Example 170, 4-[(2,3-difluorobenzyl)oxy]-N-(methylsulfonyl)benzamide] | > 3000
CS(=O)(=O)NC(=O)c1ccc(OCc2ccc(F)cc2Cl)cc1 [Example 171, 4-[(2-chloro-4-fluorobenzyl)oxy]-N-(methylsulfonyl)benzamide] | 2900
CS(=O)(=O)NC(=O)c1ccc(OCc2ccc(C#N)cc2)cc1 [Example 172, 4-[(4-cyanobenzyl)oxy]-N-(methylsulfonyl)benzamide] | > 3000

SMILES | IC50 [nM]
CS(=O)(=O)NC(=O)c1ccc(OCc2cc(Cl)cc(Cl)c2)cc1 [Example 173, 4-[(3,5-dichlorobenzyl)oxy]-N-(methylsulfonyl)benzamide] | 250
CS(=O)(=O)NC(=O)c1ccc(OCC2CCCCC2)cc1 [Example 174, 4-(cyclohexylmethoxy)-N-(methylsulfonyl)benzamide] | 1300
CS(=O)(=O)NC(=O)c1ccc(OCc2cc(Cl)ccc2Cl)cc1 [Example 175, 4-[(2,5-dichlorobenzyl)oxy]-N-(methylsulfonyl)benzamide] | 2100
CS(=O)(=O)NC(=O)c1ccc(OCc2ccc(F)cc2)cc1 [Example 176, 4-[(4-fluorobenzyl)oxy]-N-(methylsulfonyl)benzamide] | > 1000
CS(=O)(=O)NC(=O)c1ccc(OCc2ccc(F)c(F)c2)cc1 [Example 177, 4-[(3,4-difluorobenzyl)oxy]-N-(methylsulfonyl)benzamide] | 2100
CS(=O)(=O)NC(=O)c1ccc(OCc2ccc(Cl)c(F)c2)cc1 [Example 178, 4-[(4-chloro-3-fluorobenzyl)oxy]-N-(methylsulfonyl)benzamide] | 810
CS(=O)(=O)NC(=O)c1ccc(OCc2cccc(C(F)(F)F)c2)cc1 [Example 179, N-(methylsulfonyl)-4-{[3-(trifluoromethyl)benzyl]oxy}benzamide] | > 1000
CS(=O)(=O)NC(=O)c1ccc(OCc2ccccc2F)cc1 [Example 180, 4-[(2-fluorobenzyl)oxy]-N-(methylsulfonyl)benzamide] | > 3000
CS(=O)(=O)NC(=O)c1ccc(OCc2ccc(OC(F)(F)F)cc2)cc1 [Example 181, N-(methylsulfonyl)-4-{[4-(trifluoromethoxy)benzyl]oxy}benzamide] | 570
CS(=O)(=O)NC(=O)c1ccc(OCc2c(F)cccc2Cl)cc1 [Example 182, 4-[(2-chloro-6-fluorobenzyl)oxy]-N-(methylsulfonyl)benzamide] | > 1000
CS(=O)(=O)NC(=O)c1ccc(OCc2ccccc2C(F)(F)F)cc1 [Example 183, N-(methylsulfonyl)-4-{[2-(trifluoromethyl)benzyl]oxy}benzamide] | 4300
CS(=O)(=O)NC(=O)c1ccc(OCc2c(Cl)cccc2Cl)cc1 [Example 184, 4-[(2,6-dichlorobenzyl)oxy]-N-(methylsulfonyl)benzamide] | 2600
COc1cc(COc2ccc(C(=O)NS(C)(=O)=O)cc2)ccc1F [Example 185, 4-[(4-fluoro-3-methoxybenzyl)oxy]-N-(methylsulfonyl)benzamide] | > 1000
CS(=O)(=O)NC(=O)c1ccc(OCc2ccccc2Cl)cc1 [Example 186, 4-[(2-chlorobenzyl)oxy]-N-(methylsulfonyl)benzamide] | 7300
CS(=O)(=O)NC(=O)c1ccc(OCc2cc(F)cc(F)c2)cc1 [Example 187, 4-[(3,5-difluorobenzyl)oxy]-N-(methylsulfonyl)benzamide] | 4200
COc1ccc(F)c(COc2ccc(C(=O)NS(C)(=O)=O)cc2)c1 [Example 188, 4-[(2-fluoro-5-methoxybenzyl)oxy]-N-(methylsulfonyl)benzamide] | 2500
CS(=O)(=O)NC(=O)c1ccc(OCc2cccc(Cl)c2Cl)cc1 [Example 189, 4-[(2,3-dichlorobenzyl)oxy]-N-(methylsulfonyl)benzamide] | 1500
CS(=O)(=O)NC(=O)c1ccc(OCc2ccc(Cl)cc2Cl)cc1 [Example 190, 4-[(2,4-dichlorobenzyl)oxy]-N-(methylsulfonyl)benzamide] | 620
CS(=O)(=O)NC(=O)c1ccc(OCC2CCCC2)cc1 [Example 191, 4-(cyclopentylmethoxy)-N-(methylsulfonyl)benzamide] | 7600
CS(=O)(=O)NC(=O)c1cc(F)c(OCc2cccc(C(F)(F)F)c2)cc1F [Example 192, 2,5-difluoro-N-(methylsulfonyl)-4-{[3-(trifluoromethyl)benzyl]oxy}benzamide] | 3100
CS(=O)(=O)NC(=O)c1cc(F)c(OCc2ccc(C(F)(F)F)cc2)cc1F [Example 193, 2,5-difluoro-N-(methylsulfonyl)-4-{[4-(trifluoromethyl)benzyl]oxy}benzamide] | 4700
CS(=O)(=O)NC(=O)c1cc(F)c(OCc2cccc3ccccc23)cc1F [Example 194, 2,5-difluoro-N-(methylsulfonyl)-4-(1-naphthylmethoxy)benzamide] | 1700
CS(=O)(=O)NC(=O)c1cc(F)c(OCc2cccc(F)c2)cc1F [Example 195, 2,5-difluoro-4-[(3-fluorobenzyl)oxy]-N-(methylsulfonyl)benzamide] | > 3000

Reference: patent publication US9096500B2, “Acyl sulfonamide compounds” (Pfizer Limited, priority 2010, dated 2015)
